Key:
[1] = target: Ephrin type-A receptor 4 (Homo sapiens) (UniProt P54764); test: Inhibition of EPHA4 (unknown origin) assessed as residual activity at 1000 nM by KINOMEscan analysis relative to control
[2] = target: Serine/threonine-protein kinase 32B (Homo sapiens) (UniProt Q9NY57); test: Inhibition of YANK2 (unknown origin) assessed as residual activity at 1000 nM by KINOMEscan analysis relative to control
[3] = target: Tyrosine-protein kinase BTK (Homo sapiens) (UniProt Q06187); test: Inhibition of BTK (unknown origin) assessed as residual activity at 1000 nM by KINOMEscan analysis relative to control
[4] = target: Vascular endothelial growth factor receptor 3 (Homo sapiens) (UniProt P35916); test: Inhibition of FLT4 (unknown origin) assessed as residual activity at 1000 nM by KINOMEscan analysis relative to control
[5] = target: Fibroblast growth factor receptor 1 (Homo sapiens) (UniProt P11362); test: Inhibition of FGFR1 (unknown origin) assessed as residual activity at 1000 nM by KINOMEscan analysis relative to control
[6] = target: Mitogen-activated protein kinase kinase kinase 10 (Homo sapiens) (UniProt Q02779); test: Inhibition of MLK2 (unknown origin) assessed as residual activity at 1000 nM by KINOMEscan analysis relative to control
[7] = system: Receptor-type tyrosine-protein kinase FLT3 (Homo sapiens), P36888 [UNDEFINED MUTATION]; test: Inhibition of FLT3 ITD mutant (unknown origin) assessed as residual activity at 1000 nM by KINOMEscan analysis relative to control
[8] = target: Fibroblast growth factor receptor 3 (Homo sapiens) (UniProt P22607); test: Inhibition of FGFR3 (unknown origin) assessed as residual activity at 1000 nM by KINOMEscan analysis relative to control
[9] = target: Casein kinase II subunit alpha (Homo sapiens) (UniProt P68400); test: Inhibition of CSNK2A1 (unknown origin) assessed as residual activity at 1000 nM by KINOMEscan analysis relative to control
[10] = target: G protein-coupled receptor kinase 4 (Homo sapiens) (UniProt P32298); test: Inhibition of GRK4 (unknown origin) assessed as residual activity at 1000 nM by KINOMEscan analysis relative to control
[11] = target: T1, Cyclin-G-associated kinase (Homo sapiens) (UniProt O14976); test: Inhibition of GAK (unknown origin) assessed as residual activity at 1000 nM by KINOMEscan analysis relative to control
T1 sequence (whole entry): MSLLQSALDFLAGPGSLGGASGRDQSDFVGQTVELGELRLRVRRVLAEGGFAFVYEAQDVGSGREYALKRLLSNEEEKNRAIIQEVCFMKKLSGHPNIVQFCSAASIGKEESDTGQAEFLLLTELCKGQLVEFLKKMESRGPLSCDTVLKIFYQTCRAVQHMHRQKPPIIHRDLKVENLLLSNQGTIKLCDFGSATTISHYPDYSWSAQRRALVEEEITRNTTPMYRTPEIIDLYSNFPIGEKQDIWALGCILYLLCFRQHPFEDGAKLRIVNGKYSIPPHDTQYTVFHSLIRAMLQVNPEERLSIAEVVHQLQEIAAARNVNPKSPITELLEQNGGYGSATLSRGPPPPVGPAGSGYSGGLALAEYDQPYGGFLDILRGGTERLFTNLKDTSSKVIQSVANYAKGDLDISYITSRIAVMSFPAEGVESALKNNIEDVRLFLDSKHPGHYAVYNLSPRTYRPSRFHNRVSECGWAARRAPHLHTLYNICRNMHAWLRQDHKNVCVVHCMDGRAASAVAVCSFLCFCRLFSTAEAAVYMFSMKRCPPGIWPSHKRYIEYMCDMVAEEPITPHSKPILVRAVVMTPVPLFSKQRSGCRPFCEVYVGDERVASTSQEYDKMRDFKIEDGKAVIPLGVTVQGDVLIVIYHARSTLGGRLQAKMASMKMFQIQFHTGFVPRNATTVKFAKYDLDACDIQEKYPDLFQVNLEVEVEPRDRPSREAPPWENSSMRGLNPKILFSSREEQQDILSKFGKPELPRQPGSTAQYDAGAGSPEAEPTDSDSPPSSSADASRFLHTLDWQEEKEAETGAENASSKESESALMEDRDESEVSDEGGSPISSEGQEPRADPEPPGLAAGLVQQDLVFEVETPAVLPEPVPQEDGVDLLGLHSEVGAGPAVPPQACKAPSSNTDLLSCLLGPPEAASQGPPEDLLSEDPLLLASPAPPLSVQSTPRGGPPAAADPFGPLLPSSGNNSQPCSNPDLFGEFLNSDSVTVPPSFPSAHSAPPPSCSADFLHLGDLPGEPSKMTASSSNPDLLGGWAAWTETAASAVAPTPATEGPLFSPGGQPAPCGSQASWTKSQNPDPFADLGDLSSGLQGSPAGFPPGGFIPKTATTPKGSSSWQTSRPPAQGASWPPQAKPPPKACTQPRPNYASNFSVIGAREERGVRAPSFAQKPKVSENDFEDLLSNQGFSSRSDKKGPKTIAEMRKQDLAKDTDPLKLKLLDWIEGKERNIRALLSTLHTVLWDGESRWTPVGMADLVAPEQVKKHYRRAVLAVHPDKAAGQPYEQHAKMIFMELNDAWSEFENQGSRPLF

[12] = target: Fibroblast growth factor receptor 2 (Homo sapiens) (UniProt P21802); test: Inhibition of FGFR2 (unknown origin) assessed as residual activity at 1000 nM by KINOMEscan analysis relative to control
[13] = target: Mitogen-activated protein kinase 6 (Homo sapiens) (UniProt Q16659); test: Inhibition of ERK3 (unknown origin) assessed as residual activity at 1000 nM by KINOMEscan analysis relative to control
[14] = system: Hepatocyte growth factor receptor (Homo sapiens), P08581 [M1250T]; test: Inhibition of MET M1250T mutant (unknown origin) assessed as residual activity at 1000 nM by KINOMEscan analysis relative to control
[15] = system: Epidermal growth factor receptor (Homo sapiens), P00533 [T790M]; test: Inhibition of EGFR T790M mutant (unknown origin) assessed as residual activity at 1000 nM by KINOMEscan analysis relative to control
[16] = system: Phosphatidylinositol 4,5-bisphosphate 3-kinase catalytic subunit alpha isoform (Homo sapiens), P42336 [H1047L]; test: Inhibition of PIK3CA H1047L mutant (unknown origin) assessed as residual activity at 1000 nM by KINOMEscan analysis relative to control
[17] = target: Calcium/calmodulin-dependent protein kinase type 1 (Homo sapiens) (UniProt Q14012); test: Inhibition of CAMK1 (unknown origin) assessed as residual activity at 1000 nM by KINOMEscan analysis relative to control
[18] = system: Tyrosine-protein kinase ABL1 (Homo sapiens), P00519 [T315I]; test: Inhibition of nonphosphorylated ABL1 T315I mutant (unknown origin) assessed as residual activity at 1000 nM by KINOMEscan analysis relative to control

Receptor-type tyrosine-protein kinase FLT3 (Homo sapiens), P36888 [UNDEFINED MUTATION], sequence (P36888 whole entry, looked up, change not shown): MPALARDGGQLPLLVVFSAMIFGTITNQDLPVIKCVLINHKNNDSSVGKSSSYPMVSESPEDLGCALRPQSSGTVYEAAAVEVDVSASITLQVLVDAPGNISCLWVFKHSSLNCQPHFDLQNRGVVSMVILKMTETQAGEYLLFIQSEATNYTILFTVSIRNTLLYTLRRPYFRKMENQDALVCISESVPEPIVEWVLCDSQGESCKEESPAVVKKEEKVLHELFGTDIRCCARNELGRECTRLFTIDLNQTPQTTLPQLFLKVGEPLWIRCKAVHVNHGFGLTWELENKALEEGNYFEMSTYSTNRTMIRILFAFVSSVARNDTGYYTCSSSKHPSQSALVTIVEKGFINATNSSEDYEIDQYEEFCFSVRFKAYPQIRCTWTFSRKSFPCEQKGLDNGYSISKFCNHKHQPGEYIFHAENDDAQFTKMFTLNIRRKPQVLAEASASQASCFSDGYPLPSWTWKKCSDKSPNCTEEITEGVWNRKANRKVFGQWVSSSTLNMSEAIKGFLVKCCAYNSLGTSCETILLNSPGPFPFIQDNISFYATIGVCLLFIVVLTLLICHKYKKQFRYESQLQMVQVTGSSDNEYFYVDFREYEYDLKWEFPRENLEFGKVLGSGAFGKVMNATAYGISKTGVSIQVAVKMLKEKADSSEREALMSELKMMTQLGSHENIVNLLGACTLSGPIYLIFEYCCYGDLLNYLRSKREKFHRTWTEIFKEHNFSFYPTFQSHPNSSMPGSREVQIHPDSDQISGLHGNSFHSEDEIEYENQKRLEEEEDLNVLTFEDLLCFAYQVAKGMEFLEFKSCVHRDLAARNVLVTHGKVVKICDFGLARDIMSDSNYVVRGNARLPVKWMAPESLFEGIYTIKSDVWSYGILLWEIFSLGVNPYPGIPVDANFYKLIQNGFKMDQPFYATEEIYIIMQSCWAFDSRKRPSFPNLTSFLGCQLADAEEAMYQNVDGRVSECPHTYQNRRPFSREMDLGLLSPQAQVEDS
Mitogen-activated protein kinase kinase kinase 10 (Homo sapiens), sequence (Q02779 whole entry, looked up): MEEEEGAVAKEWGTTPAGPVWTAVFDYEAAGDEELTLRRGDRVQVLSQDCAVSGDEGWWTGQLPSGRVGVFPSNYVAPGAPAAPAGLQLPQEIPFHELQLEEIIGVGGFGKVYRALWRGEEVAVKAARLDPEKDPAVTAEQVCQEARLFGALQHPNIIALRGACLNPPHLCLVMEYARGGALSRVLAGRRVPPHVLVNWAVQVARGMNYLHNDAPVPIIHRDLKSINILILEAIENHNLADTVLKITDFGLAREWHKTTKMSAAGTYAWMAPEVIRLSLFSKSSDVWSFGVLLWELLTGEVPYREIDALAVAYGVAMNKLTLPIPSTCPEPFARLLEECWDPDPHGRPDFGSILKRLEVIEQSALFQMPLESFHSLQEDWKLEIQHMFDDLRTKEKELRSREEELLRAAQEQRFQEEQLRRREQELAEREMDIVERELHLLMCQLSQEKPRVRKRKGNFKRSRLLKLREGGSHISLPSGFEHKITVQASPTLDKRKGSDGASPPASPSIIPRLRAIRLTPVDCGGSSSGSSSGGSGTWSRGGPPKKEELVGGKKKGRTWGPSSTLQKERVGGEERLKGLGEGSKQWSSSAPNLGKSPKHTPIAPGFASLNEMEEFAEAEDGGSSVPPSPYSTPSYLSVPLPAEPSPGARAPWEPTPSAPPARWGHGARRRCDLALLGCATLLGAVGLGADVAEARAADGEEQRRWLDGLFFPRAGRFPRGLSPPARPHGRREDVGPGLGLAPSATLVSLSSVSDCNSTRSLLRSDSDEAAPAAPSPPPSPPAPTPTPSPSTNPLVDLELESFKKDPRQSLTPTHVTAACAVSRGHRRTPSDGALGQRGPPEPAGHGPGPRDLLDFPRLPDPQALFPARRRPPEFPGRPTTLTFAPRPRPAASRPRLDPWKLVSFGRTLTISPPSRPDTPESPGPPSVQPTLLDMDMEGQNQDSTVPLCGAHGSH
Calcium/calmodulin-dependent protein kinase type 1 (Homo sapiens), sequence (Q14012 whole entry, looked up): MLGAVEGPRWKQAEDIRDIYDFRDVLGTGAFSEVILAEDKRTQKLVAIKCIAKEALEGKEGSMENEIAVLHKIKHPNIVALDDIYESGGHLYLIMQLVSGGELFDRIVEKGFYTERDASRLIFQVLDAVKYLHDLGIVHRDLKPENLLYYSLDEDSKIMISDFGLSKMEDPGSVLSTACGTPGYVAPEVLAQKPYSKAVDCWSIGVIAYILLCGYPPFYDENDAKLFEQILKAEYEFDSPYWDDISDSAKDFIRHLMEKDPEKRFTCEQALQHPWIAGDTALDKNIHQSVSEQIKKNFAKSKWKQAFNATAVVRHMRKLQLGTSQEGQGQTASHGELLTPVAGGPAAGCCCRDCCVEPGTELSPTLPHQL
Fibroblast growth factor receptor 1 (Homo sapiens), sequence (P11362 22-822 limits assumed): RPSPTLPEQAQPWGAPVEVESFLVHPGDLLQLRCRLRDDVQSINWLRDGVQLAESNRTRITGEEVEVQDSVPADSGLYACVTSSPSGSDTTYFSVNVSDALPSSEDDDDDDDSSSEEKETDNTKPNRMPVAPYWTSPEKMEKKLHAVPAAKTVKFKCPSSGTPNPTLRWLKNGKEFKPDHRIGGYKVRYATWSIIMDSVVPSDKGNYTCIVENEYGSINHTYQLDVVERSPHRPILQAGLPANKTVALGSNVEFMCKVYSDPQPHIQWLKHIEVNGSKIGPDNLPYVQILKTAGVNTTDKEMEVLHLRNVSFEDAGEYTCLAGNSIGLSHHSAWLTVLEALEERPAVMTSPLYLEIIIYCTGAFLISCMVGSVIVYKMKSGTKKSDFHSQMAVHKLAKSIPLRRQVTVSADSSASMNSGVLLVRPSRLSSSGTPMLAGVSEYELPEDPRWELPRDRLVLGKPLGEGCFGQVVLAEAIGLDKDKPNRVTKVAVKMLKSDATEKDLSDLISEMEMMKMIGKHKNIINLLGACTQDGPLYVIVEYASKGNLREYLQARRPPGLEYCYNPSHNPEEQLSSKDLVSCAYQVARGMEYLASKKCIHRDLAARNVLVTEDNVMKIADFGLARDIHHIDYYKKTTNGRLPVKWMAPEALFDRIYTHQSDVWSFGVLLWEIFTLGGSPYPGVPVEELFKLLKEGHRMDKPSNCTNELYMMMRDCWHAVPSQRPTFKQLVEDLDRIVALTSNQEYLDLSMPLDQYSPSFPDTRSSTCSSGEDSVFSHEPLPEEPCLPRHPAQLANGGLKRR
Fibroblast growth factor receptor 3 (Homo sapiens), sequence (P22607 23-806 limits assumed): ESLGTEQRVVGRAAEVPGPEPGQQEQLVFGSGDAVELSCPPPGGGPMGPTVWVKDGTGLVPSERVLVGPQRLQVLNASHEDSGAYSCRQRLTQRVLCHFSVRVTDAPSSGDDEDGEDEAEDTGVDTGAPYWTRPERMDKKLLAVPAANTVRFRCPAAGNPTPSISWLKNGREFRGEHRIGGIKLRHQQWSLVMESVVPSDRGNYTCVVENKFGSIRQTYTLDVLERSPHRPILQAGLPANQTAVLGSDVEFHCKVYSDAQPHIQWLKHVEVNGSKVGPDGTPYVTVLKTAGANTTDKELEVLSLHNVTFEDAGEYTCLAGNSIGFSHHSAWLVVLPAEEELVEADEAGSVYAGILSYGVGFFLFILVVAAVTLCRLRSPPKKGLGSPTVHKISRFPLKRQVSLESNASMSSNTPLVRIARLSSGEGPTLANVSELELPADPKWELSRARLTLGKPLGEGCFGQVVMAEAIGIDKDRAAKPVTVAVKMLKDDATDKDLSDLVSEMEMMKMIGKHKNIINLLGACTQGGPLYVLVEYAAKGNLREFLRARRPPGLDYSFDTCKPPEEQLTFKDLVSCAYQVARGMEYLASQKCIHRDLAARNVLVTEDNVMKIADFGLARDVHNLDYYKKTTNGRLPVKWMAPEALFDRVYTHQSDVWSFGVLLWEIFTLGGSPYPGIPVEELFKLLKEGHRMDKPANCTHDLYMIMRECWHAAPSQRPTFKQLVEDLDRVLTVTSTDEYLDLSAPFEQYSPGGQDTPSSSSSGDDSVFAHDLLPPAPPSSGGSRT
Mitogen-activated protein kinase 6 (Homo sapiens), sequence (Q16659 whole entry): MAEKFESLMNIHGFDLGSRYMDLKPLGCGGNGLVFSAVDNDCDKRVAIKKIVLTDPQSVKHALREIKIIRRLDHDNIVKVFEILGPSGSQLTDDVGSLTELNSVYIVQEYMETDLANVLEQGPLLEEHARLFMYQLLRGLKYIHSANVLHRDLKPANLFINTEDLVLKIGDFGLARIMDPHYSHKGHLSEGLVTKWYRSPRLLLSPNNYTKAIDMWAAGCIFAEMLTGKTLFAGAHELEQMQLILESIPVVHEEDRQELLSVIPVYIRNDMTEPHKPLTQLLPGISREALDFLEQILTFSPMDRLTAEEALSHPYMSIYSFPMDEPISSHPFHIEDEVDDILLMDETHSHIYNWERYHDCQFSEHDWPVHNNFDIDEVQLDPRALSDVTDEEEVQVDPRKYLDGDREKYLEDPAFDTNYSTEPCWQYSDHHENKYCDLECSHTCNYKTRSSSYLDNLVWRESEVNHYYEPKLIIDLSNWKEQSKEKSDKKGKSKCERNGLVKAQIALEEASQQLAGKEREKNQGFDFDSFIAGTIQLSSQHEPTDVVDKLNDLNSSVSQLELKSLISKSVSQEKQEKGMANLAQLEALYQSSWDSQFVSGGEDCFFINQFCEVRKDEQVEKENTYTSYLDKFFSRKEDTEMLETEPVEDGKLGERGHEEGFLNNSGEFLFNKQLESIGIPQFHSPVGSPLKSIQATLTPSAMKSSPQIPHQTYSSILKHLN
Serine/threonine-protein kinase 32B (Homo sapiens), sequence (Q9NY57 whole entry): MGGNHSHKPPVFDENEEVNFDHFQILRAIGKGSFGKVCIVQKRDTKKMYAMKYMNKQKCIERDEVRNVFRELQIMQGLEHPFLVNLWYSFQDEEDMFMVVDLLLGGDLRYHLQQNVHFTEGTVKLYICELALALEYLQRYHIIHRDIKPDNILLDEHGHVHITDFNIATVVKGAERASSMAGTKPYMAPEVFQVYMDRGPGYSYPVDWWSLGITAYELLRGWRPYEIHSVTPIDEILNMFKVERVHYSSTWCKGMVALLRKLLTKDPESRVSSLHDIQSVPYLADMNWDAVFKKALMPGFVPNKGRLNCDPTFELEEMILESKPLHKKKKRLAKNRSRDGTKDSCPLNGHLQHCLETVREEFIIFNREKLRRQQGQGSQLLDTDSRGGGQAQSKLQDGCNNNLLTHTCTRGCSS

Row | SMILES | Activity [1] [%] | Activity [2] [%] | Activity [3] [%] | Activity [4] [%] | Activity [5] [%] | Activity [6] [%] | Activity [7] [%] | Activity [8] [%] | Activity [9] [%] | Activity [10] [%] | Activity [11] [%] | Activity [12] [%] | Activity [13] [%] | Activity [14] [%] | Activity [15] [%] | Activity [16] [%] | Activity [17] [%] | Activity [18] [%]
1 | COc1cc2nc(C)nc(N[C@H](C)c3cccc(-c4cn[nH]c4)c3)c2cc1OC | 96 | 86 | 100 | 90 | 65 | 42 | 58 | 100 | 70 | 95 | 96 | 67 | 100 | 100 | 87 | 96 | 73 | 95
2 | COc1cc2ncnc(N[C@H](C)c3cccc4ccccc34)c2cc1OC | 95 | 92 | 97 | 100 | 80 | 97 | 96 | 100 | 100 | 100 | 59 | 100 | 94 | 98 | 81 | 92 | 100 | 100

Reference: ChEMBL document CHEMBL5678818, “Discovery of potent SOS1 inhibitors that block RAS activation via disruption of the RAS-SOS1 interaction” (Proc Natl Acad Sci U S A, 2019)
